Each block holds one compound with its values, some of them ahead of it.
Tests used:
[1] = biological target: T1, Eukaryotic translation initiation factor 2-alpha kinase 3 (Homo sapiens, UniProt Q9NZJ5)
T1 sequence (Q9NZJ5 whole entry): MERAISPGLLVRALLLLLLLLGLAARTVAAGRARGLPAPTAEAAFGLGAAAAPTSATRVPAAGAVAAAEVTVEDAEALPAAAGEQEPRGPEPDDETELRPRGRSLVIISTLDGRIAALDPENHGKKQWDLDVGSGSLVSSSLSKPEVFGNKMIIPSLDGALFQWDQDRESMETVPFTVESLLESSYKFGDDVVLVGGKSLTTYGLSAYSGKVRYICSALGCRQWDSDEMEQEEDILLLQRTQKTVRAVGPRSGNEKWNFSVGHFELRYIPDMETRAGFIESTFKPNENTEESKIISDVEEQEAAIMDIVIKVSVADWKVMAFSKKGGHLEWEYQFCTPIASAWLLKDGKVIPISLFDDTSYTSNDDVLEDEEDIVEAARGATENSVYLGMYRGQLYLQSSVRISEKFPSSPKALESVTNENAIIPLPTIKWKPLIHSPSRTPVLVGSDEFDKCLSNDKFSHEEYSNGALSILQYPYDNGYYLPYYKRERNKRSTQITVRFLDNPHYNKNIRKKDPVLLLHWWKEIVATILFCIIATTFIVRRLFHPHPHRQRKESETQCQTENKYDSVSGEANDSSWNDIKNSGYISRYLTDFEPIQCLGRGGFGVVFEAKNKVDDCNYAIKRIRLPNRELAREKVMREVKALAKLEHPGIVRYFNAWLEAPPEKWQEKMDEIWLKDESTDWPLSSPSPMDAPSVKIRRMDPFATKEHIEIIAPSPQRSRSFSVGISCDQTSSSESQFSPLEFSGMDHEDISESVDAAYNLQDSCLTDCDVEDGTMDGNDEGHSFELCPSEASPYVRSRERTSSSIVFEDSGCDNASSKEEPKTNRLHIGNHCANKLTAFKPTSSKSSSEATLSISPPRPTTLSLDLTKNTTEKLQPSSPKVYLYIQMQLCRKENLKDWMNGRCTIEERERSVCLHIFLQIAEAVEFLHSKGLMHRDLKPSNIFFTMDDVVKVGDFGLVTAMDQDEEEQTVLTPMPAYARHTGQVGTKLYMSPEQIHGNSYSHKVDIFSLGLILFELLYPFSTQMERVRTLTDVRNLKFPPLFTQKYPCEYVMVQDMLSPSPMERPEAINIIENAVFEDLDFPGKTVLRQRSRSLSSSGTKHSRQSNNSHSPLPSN

[2] = biological target: T2, Receptor-interacting serine/threonine-protein kinase 1 (Homo sapiens, UniProt Q13546)
T2 sequence (Q13546 whole entry): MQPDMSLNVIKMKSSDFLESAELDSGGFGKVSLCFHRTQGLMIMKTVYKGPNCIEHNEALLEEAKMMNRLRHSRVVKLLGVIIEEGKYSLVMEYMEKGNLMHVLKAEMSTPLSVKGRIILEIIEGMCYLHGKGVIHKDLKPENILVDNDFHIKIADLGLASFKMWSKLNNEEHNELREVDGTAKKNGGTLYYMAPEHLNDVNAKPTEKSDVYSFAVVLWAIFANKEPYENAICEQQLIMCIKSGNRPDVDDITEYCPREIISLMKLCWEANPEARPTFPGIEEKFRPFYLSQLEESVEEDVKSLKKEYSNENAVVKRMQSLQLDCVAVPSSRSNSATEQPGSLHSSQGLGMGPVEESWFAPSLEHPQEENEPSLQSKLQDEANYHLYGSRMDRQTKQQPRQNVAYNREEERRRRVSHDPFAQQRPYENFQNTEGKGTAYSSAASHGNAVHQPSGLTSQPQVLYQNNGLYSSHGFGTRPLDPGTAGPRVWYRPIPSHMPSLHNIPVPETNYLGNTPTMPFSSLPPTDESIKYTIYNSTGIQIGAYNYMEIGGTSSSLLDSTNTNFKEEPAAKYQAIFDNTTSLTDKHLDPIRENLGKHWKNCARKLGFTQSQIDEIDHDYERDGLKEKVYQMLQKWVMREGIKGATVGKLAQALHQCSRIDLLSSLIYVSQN

Jurkat [3] = experiment: cells; conditions: Homo sapiens
[4] = biological target: T3, Receptor-interacting serine/threonine-protein kinase 3 (Homo sapiens, UniProt Q9Y572)
T3 sequence (Q9Y572 whole entry): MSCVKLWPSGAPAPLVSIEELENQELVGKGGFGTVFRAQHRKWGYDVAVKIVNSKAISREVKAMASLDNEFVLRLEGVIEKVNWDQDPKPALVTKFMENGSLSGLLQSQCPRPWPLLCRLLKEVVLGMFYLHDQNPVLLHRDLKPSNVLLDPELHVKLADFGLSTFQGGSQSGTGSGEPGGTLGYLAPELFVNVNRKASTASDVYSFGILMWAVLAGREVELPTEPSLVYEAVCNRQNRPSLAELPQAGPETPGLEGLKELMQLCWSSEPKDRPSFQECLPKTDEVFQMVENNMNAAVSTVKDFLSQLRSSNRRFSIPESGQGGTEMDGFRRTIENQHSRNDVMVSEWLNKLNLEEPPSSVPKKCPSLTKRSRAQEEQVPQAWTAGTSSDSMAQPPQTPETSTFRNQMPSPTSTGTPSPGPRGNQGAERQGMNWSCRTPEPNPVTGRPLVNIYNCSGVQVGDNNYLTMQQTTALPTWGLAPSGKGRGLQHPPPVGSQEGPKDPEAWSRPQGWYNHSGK

Jurkat [5] = experiment: cells; conditions: Homo sapiens, 24 h
HT-29 [6] = experiment: cells; conditions: Homo sapiens, HT-29, 24 h
[7] = biological target: T2, Receptor-interacting serine/threonine-protein kinase 1; experiment: biochemical
Jurkat [8] = experiment: cells; conditions: Homo sapiens, 48 h
cells = conditions: Homo sapiens, HT-29, 1 h
clinical = conditions: human
[9] = biological target: T2, Receptor-interacting serine/threonine-protein kinase 1; remark: listed apart in the source
[10] = biological target: T2, Receptor-interacting serine/threonine-protein kinase 1; remark: listed apart in the source
[11] = biological target: T2, Receptor-interacting serine/threonine-protein kinase 1; remark: listed apart in the source
[12] = biological target: T4, Regulator of chromosome condensation (Homo sapiens, UniProt P18754)
T4 sequence (P18754 whole entry): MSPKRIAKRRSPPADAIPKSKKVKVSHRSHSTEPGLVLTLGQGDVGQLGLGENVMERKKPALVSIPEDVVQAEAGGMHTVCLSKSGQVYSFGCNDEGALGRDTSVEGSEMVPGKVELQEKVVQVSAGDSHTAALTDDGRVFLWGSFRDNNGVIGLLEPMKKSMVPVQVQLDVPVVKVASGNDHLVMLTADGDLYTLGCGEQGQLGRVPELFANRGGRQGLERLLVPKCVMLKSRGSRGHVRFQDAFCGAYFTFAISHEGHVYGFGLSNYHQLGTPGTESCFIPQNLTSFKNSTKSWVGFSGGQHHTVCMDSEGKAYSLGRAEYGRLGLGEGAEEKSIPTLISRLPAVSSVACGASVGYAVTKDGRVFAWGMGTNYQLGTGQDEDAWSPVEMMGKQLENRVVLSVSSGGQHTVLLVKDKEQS

[13] = biological target: T3, Receptor-interacting serine/threonine-protein kinase 3; remark: listed apart in the source
[14] = biological target: T2, Receptor-interacting serine/threonine-protein kinase 1; remark: listed apart in the source
HT-29 [15] = experiment: cells; conditions: Homo sapiens, HT-29, 1 h
L929 [16] = experiment: cells; conditions: Mus musculus, L929, 24 h
HT-29 [17] = experiment: cells; conditions: Homo sapiens, HT-29, 24 h; remark: listed apart in the source
[18] = biological target: T2, Receptor-interacting serine/threonine-protein kinase 1; remark: listed apart in the source
Aurora kinase A = biological target: T5, Aurora kinase A (Homo sapiens, UniProt O14965)
T5 sequence (O14965 whole entry): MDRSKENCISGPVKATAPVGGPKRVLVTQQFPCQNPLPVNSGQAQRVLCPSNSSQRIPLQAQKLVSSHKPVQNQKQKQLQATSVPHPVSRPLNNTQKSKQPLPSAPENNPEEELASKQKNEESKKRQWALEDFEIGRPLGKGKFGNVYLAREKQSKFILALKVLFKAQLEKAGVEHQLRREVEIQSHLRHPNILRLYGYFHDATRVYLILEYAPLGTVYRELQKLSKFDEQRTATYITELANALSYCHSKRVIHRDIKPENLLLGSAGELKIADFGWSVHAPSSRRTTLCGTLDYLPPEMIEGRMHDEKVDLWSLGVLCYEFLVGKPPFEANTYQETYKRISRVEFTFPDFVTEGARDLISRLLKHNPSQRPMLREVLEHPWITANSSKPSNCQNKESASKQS

in vitro [19] = conditions: mouse, liver microsomes
HT-29 [20] = experiment: cells; conditions: Homo sapiens
TOV21G = experiment: cells; conditions: Homo sapiens
[21] = biological target: T2, Receptor-interacting serine/threonine-protein kinase 1; remark: listed apart in the source
U-937 [22] = experiment: cells; conditions: Homo sapiens
HT-29 [23] = experiment: cells; conditions: Homo sapiens; remark: listed apart in the source
[24] = biological target: Receptor-interacting serine/threonine-protein kinase 2 (Homo sapiens, UniProt O43353)
Sequence of Receptor-interacting serine/threonine-protein kinase 2 (O43353 whole entry): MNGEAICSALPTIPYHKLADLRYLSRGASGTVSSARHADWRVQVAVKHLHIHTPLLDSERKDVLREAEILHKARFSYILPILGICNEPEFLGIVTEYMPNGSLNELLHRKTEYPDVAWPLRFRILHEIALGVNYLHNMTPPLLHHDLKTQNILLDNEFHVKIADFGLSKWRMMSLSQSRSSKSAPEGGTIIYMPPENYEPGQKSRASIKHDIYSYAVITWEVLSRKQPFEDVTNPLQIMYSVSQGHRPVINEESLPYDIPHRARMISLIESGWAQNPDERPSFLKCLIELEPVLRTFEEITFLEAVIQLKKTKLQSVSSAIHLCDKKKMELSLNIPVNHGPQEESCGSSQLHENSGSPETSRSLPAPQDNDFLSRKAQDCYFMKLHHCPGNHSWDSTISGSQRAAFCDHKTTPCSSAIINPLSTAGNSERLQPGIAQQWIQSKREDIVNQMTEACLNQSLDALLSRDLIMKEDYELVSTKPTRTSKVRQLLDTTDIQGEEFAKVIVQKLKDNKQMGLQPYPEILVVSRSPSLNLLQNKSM

[25] = biological target: Indoleamine 2,3-dioxygenase 1 (Homo sapiens, UniProt P14902); experiment: Inhibition of IDO (unknown origin)
Sequence of Indoleamine 2,3-dioxygenase 1 (P14902 whole entry): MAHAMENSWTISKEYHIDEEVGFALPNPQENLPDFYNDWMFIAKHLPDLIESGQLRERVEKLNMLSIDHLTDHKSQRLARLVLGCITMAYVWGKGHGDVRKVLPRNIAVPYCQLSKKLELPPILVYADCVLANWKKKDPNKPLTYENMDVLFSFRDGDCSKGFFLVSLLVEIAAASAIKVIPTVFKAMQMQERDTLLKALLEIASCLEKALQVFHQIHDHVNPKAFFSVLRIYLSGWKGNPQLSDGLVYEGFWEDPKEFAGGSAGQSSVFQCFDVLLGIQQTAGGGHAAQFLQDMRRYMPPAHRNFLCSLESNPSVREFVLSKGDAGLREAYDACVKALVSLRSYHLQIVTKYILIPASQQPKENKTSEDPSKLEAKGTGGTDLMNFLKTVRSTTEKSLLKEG

Jurkat [26] = experiment: Antiproliferative activity against human Jurkat cells assessed as reduction in cell viability by MTT assay; type: functional, cell-based
[27] = biological target: T2, Receptor-interacting serine/threonine-protein kinase 1; remark: listed apart in the source
[28] = biological target: T1, Eukaryotic translation initiation factor 2-alpha kinase 3; remark: listed apart in the source
L929 [29] = experiment: cells; conditions: Mus musculus
MEF [30] = experiment: cells; conditions: Mus musculus, 48 h
HT-29 [31] = experiment: cells; conditions: Homo sapiens, HT-29, 48 h
in vitro [32] = conditions: mouse, L929 cells
U-937 [33] = experiment: cells; conditions: Homo sapiens, U-937, 48 h
MEF [34] = experiment: cells; conditions: Mus musculus, 24 h
HT-22 = experiment: cells; conditions: Mus musculus, HT-22, 24 h

- IC50 [1]: > 5000 nM
- IC50 [2]: 2.9 nM
SMILES: Cn1cc(-c2ccc3c(c2)CCN3C(=O)Cc2ccc(C(F)(F)F)cn2)c2c(N)ncnc21

- IC50 (Jurkat [3]): 185 nM
- IC50 [4]: 366 nM
SMILES: CN1C(=O)[C@@H](Cc2c[nH]c3c(Cl)c(F)ccc23)N(C=O)C1=O

- IC50 (Jurkat [5]): 210 nM
SMILES: CN1C(=O)NC(Cc2c[nH]c3ccccc23)C1=O (configuration not stated)

- EC50 (HT-29 [6]): 1050 nM
SMILES: O=[N+]([O-])c1ccn(Cc2ccc(Cl)cc2Cl)n1

SMILES: O=C(c1ccc(-c2cc3cccnc3[nH]2)cc1)N1CCOCC1
- IC50 [7]: 88000 nM

- IC50 (Jurkat [8]): 740 nM
SMILES: Cc1ccc(C2CC(=O)NC(SCC(=O)Nc3nccs3)=C2C#N)cc1 (configuration not stated)

- EC50 (cells): 1700 nM
SMILES: CCCCNc1nc2ccc([N+](=O)[O-])cc2[nH]1

- half-life (clinical): 1 h
SMILES: CN1C(=O)N[C@@H](Cc2c[nH]c3c(Cl)cccc23)C1=O

- IC50 [9]: 250 nM
SMILES: O=C(NCCc1ccccc1Cl)c1cn(-c2ccccc2)nn1

- IC50 [10]: 170 nM
SMILES: Cc1cc(Nc2cc(N3CCN(C)CC3)nc(Nc3ccc(NC(=O)C4CC4)cc3)n2)n[nH]1

- IC50 [11]: 6.49 nM
- EC50 [12]: 18.7 nM
- IC50 [13]: 18.6 nM
SMILES: CNC(=O)c1cc(Oc2ccc(NC(=O)Nc3cc(C(C)(C)C)nn3-c3ccc4ncccc4c3)c(F)c2)ccn1 [REBASTINIB]

- IC50 [9]: 95 nM
SMILES: Cc1ccc(F)c(NC(=O)Nc2ccc(-c3cccc4[nH]nc(N)c34)cc2)c1 [LINIFANIB]

- IC50 [14]: 110 nM
SMILES: O=C(c1cc2c(-c3ccc(F)cc3)cccc2s1)N1CCOCC1

- EC50 (cells): 6410 nM
- EC50 (HT-29 [15]): 540 nM
SMILES: COc1cc(/C=C/C(=O)N2CCC=CC2=O)cc(OC)c1OC [PIPLARTINE]

- EC50 (HT-29 [17]): 58 nM
SMILES: CC(=O)NC1=NC2C=CC(c3cnc4ccn(C(=O)OC5CCCCC5)c4c3)=CC2S1 (configuration not stated)
- EC50 (L929 [16]): 26 nM

- Kd [18]: 8.7 nM
SMILES: O=C(Nc1cn2cc(-c3cnc4c(c3)N(C(=O)OC3CCOCC3)CC4)ccc2n1)C1CC1

- IC50 [10]: 160 nM
- IC50 (Aurora kinase A): 430 nM
SMILES: Cc1cc(Nc2cc(N3CCNCC3)nc(Nc3ccc(NC(=O)C4CC4)cc3)n2)n[nH]1

- EC50 (Jurkat [3]): 254 nM
SMILES: Cc1ccc(Nc2nccc(N(C)c3ccc4c(C)n(C)nc4c3)n2)cc1S(N)(=O)=O [PAZOPANIB]

- IC50 [9]: 5.8 nM
- EC50 (HT-29 [17]): 5 nM
- half-life (in vitro [19]): > 1.5 h
- Kd [18]: 13 nM
SMILES: O=C(NC1CCOCC1)c1nsc2ncc(-c3ccc4nc(NC(=O)C5CC5)sc4c3)cc12
- EC50 (L929 [16]): 1.9 nM

- EC50 (Jurkat [3]): 89 nM
- EC50 (HT-29 [20]): 50 nM
SMILES: Cc1ccc(C(=O)Nc2ccc(CN3CCN(C)CC3)c(C(F)(F)F)c2)cc1C#Cc1cnc2cccnn12 [PONATINIB]

- EC50 (TOV21G): 52 nM
- IC50 [21]: 12 nM
- EC50 (U-937 [22]): 31 nM
- EC50 (HT-29 [23]): 19 nM
- EC50 (HT-29 [20]): 19 nM
- IC50 [4]: 10000 nM
- IC50 [24]: 259 nM
SMILES: COc1cc(CCc2cc(NC(=O)c3ccc(N4C[C@@H](C)N[C@@H](C)C4)cc3)n[nH]2)cc(OC)c1 [FEXAGRATINIB]

- IC50 [25]: 39100 nM
- EC50 (Jurkat [26]): 540 nM
SMILES: CN1C(=O)C(Cc2c[nH]c3ccccc23)NC1=S (configuration not stated) [NECROSTATIN]

- IC50 [27]: 18.2 nM
- IC50 [28]: 3.8 nM
SMILES: Cn1cc(-c2ccc3c(c2)CCN3C(=O)Cc2cccc(C(F)(F)F)n2)c2c(N)ncnc21

- IC50 (Jurkat [3]): 2380 nM
SMILES: C[C@@H](Oc1cc(-c2cnn(C3CCNCC3)c2)cnc1N)c1c(Cl)ccc(F)c1Cl [CRIZOTINIB]

SMILES: CCCS(=O)(=O)Nc1ccc(F)c(C(=O)c2c[nH]c3ncc(-c4ccc(Cl)cc4)cc23)c1F [VEMURAFENIB]
- EC50 (L929 [29]): 3750 nM

- EC50 (Jurkat [5]): 400 nM
- half-life (clinical): 0.542 h
SMILES: Cc1nnsc1C(=O)N[C@H](C)c1c(F)cccc1Cl

- EC50 (MEF [30]): 950 nM
- EC50 (HT-29 [31]): 1200 nM
- EC50 at 48 h (in vitro [32]): 760 nM
- IC50 [27]: 18.2 nM
- EC50 (U-937 [33]): 1330 nM
SMILES: CC(=O)Nc1nc2ccc(-c3cnc(Cl)c(NC(=O)Cc4ccccc4)c3)cc2s1

- EC50 (MEF [34]): 66500 nM
- EC50 (HT-22): 194 nM
SMILES: CC(C)(C)c1cc(NC(=O)Nc2ccc(-c3cn4c(n3)sc3cc(OCCN5CCOCC5)ccc34)cc2)no1 [QUIZARTINIB]

- IC50 (Jurkat [5]): 180 nM
SMILES: CN1C(=O)C(Cc2c[nH]c3c(Cl)cccc23)NC1=S (configuration not stated)

- IC50 [27]: 69.1 nM
- IC50 [28]: 9.7 nM
SMILES: Cc1cccc(CC(=O)N2CCc3cc(-c4cn(C)c5ncnc(N)c45)ccc32)n1

Reference: ChEMBL document CHEMBL5505961, “RIPK1 inhibitors: A key to unlocking the potential of necroptosis in drug development” (Eur J Med Chem, 2024)
